The values below come from article PMC12564180 (International Journal of Molecular Sciences, 2025).

Holding throughout (assay type): in vitro ADME
The nature of data set [1]: Biotransformation and enzyme kinetics of filapixant in human liver microsomes. A general note: Liver microsomes are a subcellular fraction often used to study metabolism.
Data set [2] addresses T1, CYP1A1 (Homo sapiens, UniProt P04798).
T1 construct: purchased
T1 sequence (P04798 1-512): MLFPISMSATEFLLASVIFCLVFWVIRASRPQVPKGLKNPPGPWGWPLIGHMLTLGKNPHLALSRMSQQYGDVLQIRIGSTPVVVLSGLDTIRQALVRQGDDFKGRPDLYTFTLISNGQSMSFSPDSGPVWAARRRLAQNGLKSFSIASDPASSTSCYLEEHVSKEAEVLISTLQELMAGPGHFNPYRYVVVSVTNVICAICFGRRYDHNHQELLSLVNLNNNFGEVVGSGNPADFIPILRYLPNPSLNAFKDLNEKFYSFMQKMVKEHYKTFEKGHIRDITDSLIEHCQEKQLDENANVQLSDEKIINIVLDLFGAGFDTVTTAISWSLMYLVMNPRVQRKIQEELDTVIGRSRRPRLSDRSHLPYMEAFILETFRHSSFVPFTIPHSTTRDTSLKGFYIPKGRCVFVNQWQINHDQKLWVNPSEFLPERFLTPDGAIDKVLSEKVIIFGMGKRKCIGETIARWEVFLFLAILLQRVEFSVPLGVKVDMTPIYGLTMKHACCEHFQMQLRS
The data set can be described thus: Incubation of filapixant with human recombinant CYP1A1 (Supersomes). To be noted: 1 µM [3H]filapixant, CYP1A1, 60 min.

Data set [3] addresses T2, CYP2B6 (Homo sapiens, UniProt P20813).
T2 construct: purchased
T2 sequence (P20813 1-491): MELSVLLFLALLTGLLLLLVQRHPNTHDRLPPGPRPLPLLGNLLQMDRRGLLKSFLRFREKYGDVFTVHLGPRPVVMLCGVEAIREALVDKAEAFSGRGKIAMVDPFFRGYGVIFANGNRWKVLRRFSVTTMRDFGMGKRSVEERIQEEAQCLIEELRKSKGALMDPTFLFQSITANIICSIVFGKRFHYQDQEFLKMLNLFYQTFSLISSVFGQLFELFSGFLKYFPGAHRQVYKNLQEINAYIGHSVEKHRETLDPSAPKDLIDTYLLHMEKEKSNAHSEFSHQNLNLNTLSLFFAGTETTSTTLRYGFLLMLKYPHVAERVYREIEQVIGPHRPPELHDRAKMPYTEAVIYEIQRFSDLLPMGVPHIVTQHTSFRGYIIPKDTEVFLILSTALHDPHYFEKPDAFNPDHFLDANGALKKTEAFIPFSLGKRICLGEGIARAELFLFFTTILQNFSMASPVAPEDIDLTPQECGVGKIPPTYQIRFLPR
Description: Incubation of [3H]filapixant with human recombinant CYP2B6 (Supersomes). To be noted: 1 µM [3H]filapixant, CYP2B6, 60 min.

Data set [4] has as its target T3, CYP3A4 (Homo sapiens, UniProt P08684).
T3 construct: purchased
Description: Incubation of filapixant with human recombinant CYP3A4 (Supersomes).

Data set [5] in a line: Biotransformation and enzyme kinetics of filapixant in human liver microsomes. Conditions: [3H]filapixant 1 µM, pooled human liver microsomes, 1 h of incubation, n = 1. The method, then: The incubations were analyzed by high-performance liquid chromatography (HPLC) with tandem mass spectroscopy (MS/MS) followed by off-line radioactivity detection to generate metabolite profiles and elucidate or confirm the structures of the metabolites formed.

The target in data set [6] is T4, CYP3A5 (Homo sapiens, UniProt P20815).
T4 construct: purchased
T4 sequence (P20815 whole entry): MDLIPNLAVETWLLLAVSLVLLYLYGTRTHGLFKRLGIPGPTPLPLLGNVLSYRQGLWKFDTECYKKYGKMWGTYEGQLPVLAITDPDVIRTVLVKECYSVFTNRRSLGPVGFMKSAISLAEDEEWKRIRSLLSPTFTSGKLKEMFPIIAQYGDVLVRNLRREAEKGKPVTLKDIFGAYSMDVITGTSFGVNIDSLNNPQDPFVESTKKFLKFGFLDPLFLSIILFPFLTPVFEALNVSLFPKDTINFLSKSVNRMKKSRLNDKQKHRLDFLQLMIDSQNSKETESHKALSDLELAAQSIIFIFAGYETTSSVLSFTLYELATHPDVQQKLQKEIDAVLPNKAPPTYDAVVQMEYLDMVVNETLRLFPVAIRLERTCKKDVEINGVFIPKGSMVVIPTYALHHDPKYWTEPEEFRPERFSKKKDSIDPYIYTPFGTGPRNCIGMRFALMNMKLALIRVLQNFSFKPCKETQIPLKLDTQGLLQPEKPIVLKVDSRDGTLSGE
Description: Incubation of [3H]filapixant with human recombinant CYP3A5 (Supersomes). To be noted: 1 µM [3H]filapixant, CYP3A5, 60 min.

T3 sequence (P08684 whole entry): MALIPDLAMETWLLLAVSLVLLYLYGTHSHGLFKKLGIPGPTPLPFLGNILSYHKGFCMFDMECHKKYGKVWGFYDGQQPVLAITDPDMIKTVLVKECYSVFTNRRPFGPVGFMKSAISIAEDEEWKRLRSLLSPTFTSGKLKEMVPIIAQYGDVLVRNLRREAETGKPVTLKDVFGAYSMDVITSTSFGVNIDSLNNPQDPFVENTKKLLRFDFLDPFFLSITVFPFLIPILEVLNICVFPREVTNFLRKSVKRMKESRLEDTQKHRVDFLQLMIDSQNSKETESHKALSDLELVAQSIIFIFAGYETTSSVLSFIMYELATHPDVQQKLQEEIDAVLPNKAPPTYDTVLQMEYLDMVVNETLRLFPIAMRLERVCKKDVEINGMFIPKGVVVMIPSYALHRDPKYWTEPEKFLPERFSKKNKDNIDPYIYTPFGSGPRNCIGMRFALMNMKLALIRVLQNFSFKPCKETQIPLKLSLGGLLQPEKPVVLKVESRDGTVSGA

For orientation: Km means the concentration of substrate that gives half-maximal velocity. As for `Cc1cnc(-c2cc(O)cc(C(=O)N[C@H](C)c3cnc(C(F)(F)F)nc3)c2)s1` [M-6], the “Vmax of metabolite formation” value in data set [1] (filapixant in human liver microsomes (0.5 mg/mL), 30 min incubation) amounted to 1.32E+05 peak area/pmol CYP/min; in data set [4] (filapixant in recombinant human CYP3A4 (25 pmol/mL), 20 min incubation), 7.78E+04 peak area/pmol CYP/min. The Km at 30 min in data set [1] (human, human liver microsomes, probe filapixant (substrate), read-out: Km,app of metabolite formation) was 68 µM. Besides, the “Remaining drug and formation of metabolites, Peak Area” value in data set [2] is on record as 0.5 % of Radioactivity; in data set [3], 0.4 % of Radioactivity; in data set [4] (1 µM [3H]filapixant, CYP3A4, 60 min), 6.0 % of Radioactivity; in data set [6], 0.8 % of Radioactivity. Also, the “Recovery of filapixant and metabolite formation, Liver Microsomes” value in data set [5] is 4.4 % of radioactivity.
